Data as given in ChEMBL document CHEMBL1127513, “Glutathione-S-transferase activates novel alkylating agents” (J Med Chem, 1994).

Assays:
Format in all cases: functional, cell-based
[1] = system: MCF7; experiment: Inhibitory activity against MCF-7 neo cells […] for treatment time of 120 min.; conditions: Homo sapiens, MCF7, 2 h
[2] = system: MCF7; experiment: Inhibitory activity against MCF-7 pi cells containing P1-1 GST for treatment time of 120 min.; conditions: Homo sapiens, MCF7, 2 h
[3] = system: HT-29; experiment: Inhibitory activity against HT-29 human colon carcinoma cells containing P1-1 GST for treatment time of 60 min.; conditions: HT-29, 1 h
[4] = system: HT-29; experiment: Inhibitory activity against HT-29 human colon carcinoma cells containing P1-1 GST for treatment time of 120 min.; conditions: HT-29, 2 h

| Structure (SMILES) | IC50 [1] [µM] | IC50 [2] [µM] | IC50 [3] [µM] | IC50 [4] [µM] |
| --- | --- | --- | --- | --- |
| NC(CCC(=O)NC(CS(=O)(=O)CCOP(=O)(N(CCCl)CCCl)N(CCCl)CCCl)C(=O)NC(C(=O)O)c1ccccc1)C(=O)O (stereo not drawn) | 37.5 | 9.5 | 170 | 80.3 |
| NC(CCC(=O)NC(CS(=O)(=O)CCOP(=O)(N(CCCl)CCCl)N(CCCl)CCCl)C(=O)NCC(=O)O)C(=O)O (stereo not drawn) | 40.2 | 20.9 | 84.7 | 68.9 |
